Test [1] concerns the target human (hACC2) (Homo sapiens, UniProt O00763). The test is described as follows: In vitro ACC inhibition assay (ADP-Glo), hACC2. In kind it is biochemical. The conditions noted are these: Table 2b, additional results, 5 nM ACC2, 20 μM ATP, 20 μM acetyl-CoA. The procedure:
The detailed procedure is as follows. […] 10 μL ADP glo reagent was added. […] 20 μL kinase detection reagent was added.
Background: ADP-Glo turns the ADP formed in a reaction into a luminescent signal.

In test [2] the test system is C. albicans. Put plainly: Antifungal Activity Assay (broth microtiter MIC), C. albicans. In kind it is cell-based, Candida albicans. The conditions noted are these: Candida albicans, ATCC90028, 48 h. The procedure, abridged: (§1)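 CLSI M27-A3 microdilution; RPMI 1640+MOPS; 2.5×10^3 CFU/mL final inoculum; cultures from Sabouraud dextrose agar, 35° C overnight; compound working solution 128 μg/mL from 1 mg/mL DMSO stock; visual MIC at 48 h vs growth control.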

In test [3] the test system is C. krusei. The test is described as follows: Antifungal Activity Assay (broth microtiter MIC), C. krusei. In kind it is cell-based, Candida krusei. The conditions noted are these: Pichia kudriavzevii, ATCC6258, 48 h. An outline of the steps: as §1
Test [4] deals with C. parapsilosis. Put plainly: Antifungal Activity Assay (broth microtiter MIC), C. parapsilosis. In kind it is cell-based, Candida parapsilosis. The conditions noted are these: Lodderomyces parapsilosis, ATCC22019, 48 h. The procedure, abridged: as §1
In test [5] the test system is Botrtyis cinerea (Bc). Put plainly: Growth inhibition assay of fungal pathogens, Bc. In kind it is cell-based. The conditions noted are these: 48 h, growth inhibition at 48 hours vs 2% DMSO control. The procedure, abridged:
(§2)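 Inhibition percentages reflect 48 h OD600 and visual scores relative to a 2% DMSO control. Test concentrations were 50, 10, 2 ppm or 2, 0.4, 0.08 ppm final, applied to spores in 17% V8 medium.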

Test [6] concerns Collectotrichum graminicola (Cg). Put plainly: Growth inhibition assay of fungal pathogens, Cg. In kind it is cell-based. Particulars: 48 h, growth inhibition at 48 hours vs 2% DMSO control. The procedure, abridged:
as §2

Test [7] concerns Diplodia maydis (Dm). Put plainly: Growth inhibition assay of fungal pathogens, Dm. In kind it is cell-based. The conditions noted are these: Stenocarpella maydis, 48 h, growth inhibition at 48 hours vs 2% DMSO control. The procedure, abridged: as §2
Test [8] concerns Fusarium moniliforme (Fm). The test is described as follows: Growth inhibition assay of fungal pathogens, Fm. In kind it is cell-based. Particulars: Fusarium verticillioides, 48 h, read-out: Concentration at 90% Inhibition Fm. An outline of the steps:
as §2

Test [9] concerns Fusarium virguliforme (Fv). The test is described as follows: Growth inhibition assay of fungal pathogens, Fv. In kind it is cell-based. The conditions noted are these: 48 h. An outline of the steps: as §2
The subject of test [10] is Phytophthora capsici (Pc). Put plainly: Growth inhibition assay of fungal pathogens, Pc. In kind it is cell-based. Particulars: 48 h. An outline of the steps:
as §2

Test [11] concerns Rhizoctonia solani (Rs). The test is described as follows: Growth inhibition assay of fungal pathogens, Rs. In kind it is cell-based. Particulars: 48 h.
Test [12] deals with Septoria tritici (St). Put plainly: Growth inhibition assay of fungal pathogens, St. Particulars: Zymoseptoria tritici, 48 h, growth inhibition at 48 hours vs 2% DMSO control. In kind it is cell-based. The procedure, abridged:
as §2

Test [13] has as its target fungal (fACC2) (UniProt Q00955). Particulars: read-out: fACC2 (in vitro ACC2 Inhibition Assay, IC50); Table 2b, additional results; ADP-Glo, 5 nM ACC2, 20 μM ATP, 20 μM acetyl-CoA.
The mark [14] stands for this setting: Table 3b (additional results), ATCC 90028, 3 replicates, MIC recorded at 48 h, read-out: MIC, C. albicans ATCC 90028.
Setting [15] is: Table 3b (additional results), ATCC 6258, 3 replicates, MIC recorded at 48 h, read-out: MIC, C. krusei ATCC 6258.
Where [16] appears, read: Table 3b (additional results), ATCC 22019, 3 replicates, MIC recorded at 48 h, read-out: MIC, C. parapsilosis ATCC 22019.
The mark [17] stands for this setting: Botrtyis cinerea, read-out: Concentration at 90% Inhibition Bc.
Where [18] appears, read: Collectotrichum graminicola, read-out: Concentration at 90% Inhibition Cg.
Setting [19] is: Diplodia maydis, read-out: Concentration at 90% Inhibition Dm.
The mark [20] stands for this setting: Fusarium moniliforme, growth inhibition at 48 hours vs 2% DMSO control.
The mark [21] stands for this setting: growth inhibition at 48 hours vs 2% DMSO control, read-out: Concentration at 90% Inhibition Fv.
Where [22] appears, read: growth inhibition at 48 hours vs 2% DMSO control, read-out: Concentration at 90% Inhibition Pc.
[23] abbreviates: mycelial plugs, growth inhibition at 48 hours vs 2% DMSO control, read-out: Concentration at 90% Inhibition Rs.
Setting [24] is: Septoria tritici, read-out: Concentration at 90% Inhibition St.
The mark [25] stands for this setting: read-out: MIC, C. albicans ATCC 90028, Table 3b (additional results), 3 replicates, MIC recorded at 48 h.
Setting [26] is: read-out: MIC, C. krusei ATCC 6258, Table 3b (additional results), 3 replicates, MIC recorded at 48 h.
[27] abbreviates: read-out: MIC, C. parapsilosis ATCC 22019, Table 3b (additional results), 3 replicates, MIC recorded at 48 h.
The mark [28] stands for this setting: read-out: Concentration at 90% Inhibition Bc, Botrtyis cinerea.
Setting [29] is: read-out: Concentration at 90% Inhibition Cg, Collectotrichum graminicola.
[30] abbreviates: read-out: Concentration at 90% Inhibition Dm, Diplodia maydis.
[31] abbreviates: read-out: Concentration at 90% Inhibition Fv, Fusarium virguliforme, growth inhibition at 48 hours vs 2% DMSO control.
The mark [32] stands for this setting: read-out: Concentration at 90% Inhibition Pc, Phytophthora capsici, growth inhibition at 48 hours vs 2% DMSO control.
Setting [33] is: read-out: Concentration at 90% Inhibition Rs, Rhizoctonia solani, mycelial plugs, growth inhibition at 48 hours vs 2% DMSO control.
Where [34] appears, read: read-out: Concentration at 90% Inhibition St, Septoria tritici.

In brackets after ≈: the same amount, converted by molar mass. Read-outs that look alike come from different tables or passages of the source. Some results are limits rather than exact numbers.

This is an account of results in patent US10800791B2, “Triazole ACC inhibitors and uses thereof” (Gilead Apollo, LLC, priority 2015, dated 2020).

Chain of fungal (fACC2) (Q00955 whole entry): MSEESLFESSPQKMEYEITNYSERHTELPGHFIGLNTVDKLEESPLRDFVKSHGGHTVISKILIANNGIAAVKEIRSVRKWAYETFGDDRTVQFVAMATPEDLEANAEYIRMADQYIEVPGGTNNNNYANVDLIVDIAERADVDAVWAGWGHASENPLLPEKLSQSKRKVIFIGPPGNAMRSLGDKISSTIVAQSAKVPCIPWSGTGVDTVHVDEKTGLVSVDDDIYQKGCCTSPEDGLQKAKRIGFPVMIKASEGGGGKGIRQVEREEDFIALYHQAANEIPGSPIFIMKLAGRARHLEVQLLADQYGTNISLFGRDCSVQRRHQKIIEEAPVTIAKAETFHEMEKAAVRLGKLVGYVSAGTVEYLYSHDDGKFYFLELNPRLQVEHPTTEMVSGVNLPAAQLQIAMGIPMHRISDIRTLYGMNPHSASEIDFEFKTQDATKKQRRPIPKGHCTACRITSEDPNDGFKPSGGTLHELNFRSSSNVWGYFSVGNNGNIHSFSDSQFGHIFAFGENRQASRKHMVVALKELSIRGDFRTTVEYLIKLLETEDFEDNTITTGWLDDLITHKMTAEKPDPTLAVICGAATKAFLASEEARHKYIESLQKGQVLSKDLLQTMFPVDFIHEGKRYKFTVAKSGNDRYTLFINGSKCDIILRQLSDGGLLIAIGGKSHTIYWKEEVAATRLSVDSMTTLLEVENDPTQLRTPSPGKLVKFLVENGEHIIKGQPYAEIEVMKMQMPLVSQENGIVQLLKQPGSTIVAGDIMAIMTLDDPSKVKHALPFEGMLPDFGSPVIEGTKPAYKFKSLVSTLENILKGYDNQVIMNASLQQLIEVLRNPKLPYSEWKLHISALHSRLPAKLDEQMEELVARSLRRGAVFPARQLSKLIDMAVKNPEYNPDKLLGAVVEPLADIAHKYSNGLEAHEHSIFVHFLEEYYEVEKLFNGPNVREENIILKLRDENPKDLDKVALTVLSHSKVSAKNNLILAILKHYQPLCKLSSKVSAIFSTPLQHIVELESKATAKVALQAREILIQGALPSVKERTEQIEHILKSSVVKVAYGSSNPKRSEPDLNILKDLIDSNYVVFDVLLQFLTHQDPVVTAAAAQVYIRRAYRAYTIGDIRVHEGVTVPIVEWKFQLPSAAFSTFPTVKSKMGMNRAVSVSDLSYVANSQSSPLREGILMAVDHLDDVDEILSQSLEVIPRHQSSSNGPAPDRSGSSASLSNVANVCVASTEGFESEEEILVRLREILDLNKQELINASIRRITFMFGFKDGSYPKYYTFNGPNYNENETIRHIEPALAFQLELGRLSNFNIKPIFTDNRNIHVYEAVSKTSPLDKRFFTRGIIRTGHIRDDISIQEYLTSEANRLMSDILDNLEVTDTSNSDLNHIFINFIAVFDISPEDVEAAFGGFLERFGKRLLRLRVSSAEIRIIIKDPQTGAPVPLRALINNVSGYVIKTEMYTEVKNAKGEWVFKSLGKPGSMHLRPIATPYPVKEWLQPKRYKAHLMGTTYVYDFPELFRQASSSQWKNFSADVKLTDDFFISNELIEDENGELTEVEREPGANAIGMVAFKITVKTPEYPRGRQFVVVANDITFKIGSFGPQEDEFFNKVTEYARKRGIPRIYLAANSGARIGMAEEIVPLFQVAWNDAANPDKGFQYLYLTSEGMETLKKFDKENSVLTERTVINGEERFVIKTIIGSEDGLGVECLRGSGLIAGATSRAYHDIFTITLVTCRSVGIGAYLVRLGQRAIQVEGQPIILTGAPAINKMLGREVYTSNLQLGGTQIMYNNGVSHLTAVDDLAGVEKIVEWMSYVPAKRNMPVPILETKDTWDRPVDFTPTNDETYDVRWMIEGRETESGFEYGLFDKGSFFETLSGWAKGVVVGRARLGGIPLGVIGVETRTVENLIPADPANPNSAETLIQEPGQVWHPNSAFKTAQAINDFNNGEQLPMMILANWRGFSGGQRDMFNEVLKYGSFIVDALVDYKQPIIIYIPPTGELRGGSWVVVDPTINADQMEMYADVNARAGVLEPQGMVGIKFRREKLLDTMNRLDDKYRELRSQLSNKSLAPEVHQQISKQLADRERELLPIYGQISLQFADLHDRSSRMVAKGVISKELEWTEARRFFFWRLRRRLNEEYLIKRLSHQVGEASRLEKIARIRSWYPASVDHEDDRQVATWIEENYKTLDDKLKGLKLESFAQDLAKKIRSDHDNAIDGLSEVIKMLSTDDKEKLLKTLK
Chain of human (hACC2) (O00763 whole entry): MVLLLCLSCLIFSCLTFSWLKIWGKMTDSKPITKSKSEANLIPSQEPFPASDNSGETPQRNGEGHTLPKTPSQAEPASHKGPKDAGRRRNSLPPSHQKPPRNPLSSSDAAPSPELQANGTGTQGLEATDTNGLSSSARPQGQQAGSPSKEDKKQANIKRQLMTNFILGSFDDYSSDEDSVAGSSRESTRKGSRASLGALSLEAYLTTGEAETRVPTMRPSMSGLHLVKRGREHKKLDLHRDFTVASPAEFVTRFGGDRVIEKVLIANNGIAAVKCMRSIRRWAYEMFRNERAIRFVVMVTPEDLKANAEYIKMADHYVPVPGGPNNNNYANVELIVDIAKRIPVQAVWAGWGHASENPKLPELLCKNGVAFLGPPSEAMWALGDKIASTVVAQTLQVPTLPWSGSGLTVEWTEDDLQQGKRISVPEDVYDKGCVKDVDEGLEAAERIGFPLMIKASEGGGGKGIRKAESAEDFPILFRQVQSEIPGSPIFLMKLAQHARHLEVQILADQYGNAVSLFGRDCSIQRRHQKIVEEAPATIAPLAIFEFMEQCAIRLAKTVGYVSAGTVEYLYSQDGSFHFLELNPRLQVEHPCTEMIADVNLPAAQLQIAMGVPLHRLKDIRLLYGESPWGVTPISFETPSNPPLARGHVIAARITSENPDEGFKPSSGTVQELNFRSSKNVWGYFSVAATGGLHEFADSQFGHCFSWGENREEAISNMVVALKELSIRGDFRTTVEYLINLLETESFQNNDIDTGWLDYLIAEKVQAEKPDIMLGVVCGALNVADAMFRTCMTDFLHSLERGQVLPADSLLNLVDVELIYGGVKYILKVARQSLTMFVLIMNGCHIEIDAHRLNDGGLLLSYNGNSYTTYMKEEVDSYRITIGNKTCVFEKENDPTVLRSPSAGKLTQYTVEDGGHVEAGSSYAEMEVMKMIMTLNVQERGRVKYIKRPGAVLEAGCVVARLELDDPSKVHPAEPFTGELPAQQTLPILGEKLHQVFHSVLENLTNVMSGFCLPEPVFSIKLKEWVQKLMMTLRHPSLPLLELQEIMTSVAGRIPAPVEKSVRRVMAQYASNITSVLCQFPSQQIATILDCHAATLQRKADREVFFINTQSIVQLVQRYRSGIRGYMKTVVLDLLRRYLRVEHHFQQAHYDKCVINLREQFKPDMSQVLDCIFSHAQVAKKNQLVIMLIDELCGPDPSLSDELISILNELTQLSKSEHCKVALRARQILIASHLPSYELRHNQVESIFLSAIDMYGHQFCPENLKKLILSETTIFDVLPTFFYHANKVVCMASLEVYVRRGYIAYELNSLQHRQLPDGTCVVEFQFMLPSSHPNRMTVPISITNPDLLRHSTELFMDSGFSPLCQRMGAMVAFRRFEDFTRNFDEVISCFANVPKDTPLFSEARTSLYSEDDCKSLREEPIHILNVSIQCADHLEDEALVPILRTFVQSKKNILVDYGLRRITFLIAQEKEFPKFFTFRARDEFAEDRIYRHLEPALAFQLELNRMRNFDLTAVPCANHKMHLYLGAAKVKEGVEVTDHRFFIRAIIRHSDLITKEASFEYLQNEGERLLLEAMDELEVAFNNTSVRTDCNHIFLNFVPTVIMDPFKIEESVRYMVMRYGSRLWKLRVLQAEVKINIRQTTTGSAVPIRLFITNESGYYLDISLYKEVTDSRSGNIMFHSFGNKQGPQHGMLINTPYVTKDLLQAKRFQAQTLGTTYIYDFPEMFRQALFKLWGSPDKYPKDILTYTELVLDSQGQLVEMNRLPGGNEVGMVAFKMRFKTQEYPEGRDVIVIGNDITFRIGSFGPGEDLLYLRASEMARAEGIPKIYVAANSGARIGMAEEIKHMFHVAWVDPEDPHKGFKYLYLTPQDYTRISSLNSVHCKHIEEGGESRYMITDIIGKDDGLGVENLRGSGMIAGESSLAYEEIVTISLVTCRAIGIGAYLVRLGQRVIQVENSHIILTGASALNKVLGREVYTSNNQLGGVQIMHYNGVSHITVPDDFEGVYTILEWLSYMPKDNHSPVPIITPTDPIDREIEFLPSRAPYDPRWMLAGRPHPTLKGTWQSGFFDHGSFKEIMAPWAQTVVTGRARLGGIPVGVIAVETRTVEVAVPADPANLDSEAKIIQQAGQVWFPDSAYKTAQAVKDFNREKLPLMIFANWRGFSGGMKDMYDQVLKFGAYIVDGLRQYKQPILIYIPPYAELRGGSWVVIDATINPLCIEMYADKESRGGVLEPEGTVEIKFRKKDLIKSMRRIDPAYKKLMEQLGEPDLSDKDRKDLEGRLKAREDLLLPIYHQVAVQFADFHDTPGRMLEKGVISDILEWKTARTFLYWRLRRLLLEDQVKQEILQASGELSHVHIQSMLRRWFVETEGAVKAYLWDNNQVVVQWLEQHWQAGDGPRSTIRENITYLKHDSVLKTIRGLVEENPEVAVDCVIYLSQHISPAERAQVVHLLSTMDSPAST

For `COc1ccc(F)cc1[C@](C)(Cn1c(=O)n(C(C)(C)C(=O)NC(C)C)c(=O)c2c(C)c(-n3nccn3)sc21)OCCC#N` [Compound I-229], the IC50 was greater than 40 nM in [1] and 1 to 5 nM in test [13]. For the same molecule, the MIC fell in the range of 0.25 to 1 µg/mL (≈ 0.409 to 1.63 µM) in test [2] (setting [14]), 0.25 to 1 µg/mL (≈ 0.409 to 1.63 µM) in test [3] (setting [15]) and 1.01 to 2 µg/mL (≈ 1.65 to 3.27 µM) in [4] (setting [16]). Further, the IC90 in test [5] (setting [17]) is 0.4 µg/mL (≈ 0.654 µM); in [6] (setting [18]), 2 µg/mL (≈ 3.27 µM); in [7] (setting [19]), greater than 50 µg/mL; in [8] (setting [20]), 0.08 µg/mL (≈ 0.131 µM); in test [9] (setting [21]) it was 0.4 µg/mL (≈ 0.654 µM); in test [10] (setting [22]) it was greater than 50 µg/mL. The results for the IC90 in test [11] (setting [23]) and in [12] (setting [24]) were 2 µg/mL (≈ 3.27 µM) and greater than 50 µg/mL, respectively.
`COc1ccc(F)cc1[C@@](C)(Cn1c(=O)n(C(C)(C)C(=O)NC(C)C)c(=O)c2c(C)c(-n3nccn3)sc21)OCCC#N` [Compound I-230]: the IC50 lay in the range of 10 to 40 nM in test [1] and 0.3 to 1 nM in test [13]. The results for the minimal inhibitory concentration (MIC) in [2] (setting [14]), in [3] (setting [15]) and in test [4] (setting [16]) were 0.25 to 1 µg/mL (≈ 0.409 to 1.63 µM), 0.25 to 1 µg/mL (≈ 0.409 to 1.63 µM) and 1.01 to 2 µg/mL (≈ 1.65 to 3.27 µM), respectively. Further, the IC90 in [5] (setting [17]) came out at 0.4 µg/mL (≈ 0.654 µM); in test [6] (setting [18]), 0.08 µg/mL (≈ 0.131 µM); in test [7] (setting [19]), 0.4 µg/mL (≈ 0.654 µM); in test [8] (setting [20]), 0.08 µg/mL (≈ 0.131 µM); in [9] (setting [21]), 0.4 µg/mL (≈ 0.654 µM); in [10] (setting [22]), 2 µg/mL (≈ 3.27 µM). Moreover, the figures for the IC90 in test [11] (setting [23]) and in test [12] (setting [24]) were 0.08 µg/mL (≈ 0.131 µM) and greater than 50 µg/mL, respectively.
`COc1ccc(F)cc1[C@@](O)(CCO)Cn1c(=O)n(C(C)(C)C(=O)NC(C)C)c(=O)c2c(C)c(-n3nccn3)sc21` [Compound I-231]: the IC50 was in the range of 10 to 40 nM in test [1] and 1 to 5 nM in test [13]. Besides, the MIC fell in the range of 0.06 to 0.249 µg/mL (≈ 0.102 to 0.423 µM) in test [2] (setting [25]), 0.06 to 0.249 µg/mL (≈ 0.102 to 0.423 µM) in test [3] (setting [26]) and 1.01 to 2 µg/mL (≈ 1.72 to 3.4 µM) in [4] (setting [27]). Moreover, the IC90 was 2 µg/mL (≈ 3.4 µM) in [5] (setting [28]); 2 µg/mL (≈ 3.4 µM) in [6] (setting [29]); 2 µg/mL (≈ 3.4 µM) in test [7] (setting [30]); 0.4 µg/mL (≈ 0.68 µM) in test [8]; 2 µg/mL (≈ 3.4 µM) in test [9] (setting [31]); 10 µg/mL (≈ 17 µM) in test [10] (setting [32]). For the same molecule, the IC90 in [11] (setting [33]) was 0.08 µg/mL (≈ 0.136 µM); in test [12] (setting [34]), greater than 50 µg/mL.
On to `Cc1c(-n2nccn2)sc2c1c(=O)n(C(C)(C)C(=O)NC(C)C)c(=O)n2C[C@H](OC(C)C)c1cc(F)ccc1CCC#N` [Compound I-234], for which the figures for the half-maximal inhibitory concentration (IC50) in test [1] and in [13] were 10 to 40 nM and 1 to 5 nM, respectively. The MIC was 2.01 to 4 µg/mL (≈ 3.3 to 6.56 µM) in test [2] (setting [25]), 1.01 to 2 µg/mL (≈ 1.66 to 3.28 µM) in [3] (setting [26]) and 2.01 to 4 µg/mL (≈ 3.3 to 6.56 µM) in [4] (setting [27]). In addition, the IC90 is 0.4 µg/mL (≈ 0.656 µM) in test [5] (setting [28]); 0.4 µg/mL (≈ 0.656 µM) in test [6] (setting [29]); 2 µg/mL (≈ 3.28 µM) in test [7] (setting [30]); 0.08 µg/mL (≈ 0.131 µM) in test [8]; 0.08 µg/mL (≈ 0.131 µM) in [9] (setting [31]); greater than 50 µg/mL in test [10] (setting [32]). Also, the IC90 in [11] (setting [33]) is 0.08 µg/mL (≈ 0.131 µM); in [12] (setting [34]), greater than 50 µg/mL.
In the case of `Cc1c(-n2nccn2)sc2c1c(=O)n(C(C)(C)C(=O)NC(C)C)c(=O)n2C[C@H](OCC(C)(C)O)c1cc(F)ccc1OCC#N` [Compound I-235], the IC50 in test [1] fell in the range of 10 to 40 nM; in [13], 1 to 5 nM. Further, the MIC in test [2] (setting [25]) is 0.25 to 1 µg/mL (≈ 0.39 to 1.56 µM); in test [3] (setting [26]) it was 2.01 to 4 µg/mL (≈ 3.13 to 6.23 µM); in test [4] (setting [27]), 1.01 to 2 µg/mL (≈ 1.57 to 3.12 µM). Besides, the IC90 in test [5] (setting [28]) came out at 2 µg/mL (≈ 3.12 µM); in test [6] (setting [29]), 0.4 µg/mL (≈ 0.623 µM); in [7] (setting [30]), 2 µg/mL (≈ 3.12 µM); in [8], 0.4 µg/mL (≈ 0.623 µM); in test [9] (setting [31]) it was 2 µg/mL (≈ 3.12 µM); in test [10] (setting [32]), 10 µg/mL (≈ 15.6 µM). In addition, the IC90 is 0.4 µg/mL (≈ 0.623 µM) in [11] (setting [33]) and greater than 50 µg/mL in test [12] (setting [34]).

As usually defined, the IC50 is the point on the concentration scale where inhibition reaches its midpoint. In general, MIC refers to the least concentration at which growth counts as inhibited.
